Here are results for 1 compound from EP0254534A2, “Erythromycin derivatives and compositions and use for inhibiting virus replication and disease” (Robinson, William S., priority 1986, dated 1988).

Where “and” joins values, the source holds several entries; their conditions need not be identical. Identical values can stand only once. Like-named read-outs stand apart in the source and are kept apart here.

In experiment [1] the test system is DHBV. The experiment in a line: In vivo replication of DHBV in chronically infected Pekin ducks; serum viral DNA by slot blot hybridization. As to the method:
A sample of 9-0-methyloximinyl erythromycin A (EMO) in solution at a concentration of 100 mg/ml in dimethyl sulfoxide (DMSO) was administered subcutaneously at a dose of 15 mg/kg/day for 14 days to a group of 10-week old Pekin ducks chronically infected with DHBV (experimentally infected as described by Marion et al., "Liver Disease Associated with Duck Hepatitis B Virus Infection of Domestic Ducks", Proc. Natl. Acad. Sci. USA (1984) 81:898). Another group of 10-week old Pekin ducks were used as a control and treated with the same dose of DMSO alone. In vivo replication of virus was assessed by measuring levels of DHBV virus in the serum of infected animals before, during, and after treatment. Virus levels in serum were determined by quantitating the DNA of the virus by slot blot hybridization. Ten µl of each serum was made up to 0.1 M with NaOH to disrupt virus and denature the viral DNA. The samples were spotted on nylon membrane which binds single stranded DNA. The filter-bound viral DNA was detected by hybridization with a DHBV [³²P]- DNA probe followed by autoradiography. The quantity of viral DNA in each serum sample, expressed as picograms of viral DNA/ml serum, was determined by comparing densitometer tracings of the exposed area of film overlying each serum spot on the nylon membrane with a standard curve derived from densitometer tracings for known amounts of DHBV DNA similarly spotted on the same nylon membrane.
EMO was administered beginning on day 8 for 14 days at the rate of 15 mg/kg/day. The low level was retained until day 22 (when EMO treatment was discontinued) thereafter the viral level began to climb and was followed to day 32, where the level reached about 650 picograms DHPV DNA/ml serum.
Table 2 summarizes the results of treatment of four animals with erythromycin A 9-0-methyloxime (EMO) in DMSO and four animals with DMSO alone as determined on day 22 after termination of administration of the drug after 14 days. Virus was similarly found to be suppressed by EMO treatment in each animal and not by DMSO.

Experiment [2] deals with HTLV III. The experiment in a line: Inhibition of growth of HTLV III in infected T-cell line (VB) in tissue culture; culture medium assayed by reverse transcriptase and P-24 ELISA. Format: cell-based. The conditions noted are these: HTLV III infected VB T-cells; for inhibition at 1 µg/mL: EMO 1 µg/ml; for inhibition at 5 µg/mL: EMO 5 µg/ml; for inhibition at 10 µg/mL: EMO 10 µg/ml; for inhibition at 20 µg/mL: EMO 20 µg/ml. The method, then:
A sample of 9-0-methyloximinyl erythromycin A (EMO) was tested for capacity to inhibit growth of HTLV III in tissue culture. A T-cell line (VB) was infected with HTLV III and infected cells were incubated with 0, 1, 5, 10 and 20 µgm EMO per ml of tissue culture medium. Culture medium was recovered after 0, 1, 2, 3, and 4 days of incubation and assayed for HTLV III production by reverse transcriptase and viral antigen (P-24) testing by ELISA.

Where [3] appears, read: culture medium, read-out: % Reduction Reverse Transcriptase.
[4] abbreviates: viral antigen by ELISA, read-out: % Reduction P-24.

Consider `CCC1OC(=O)C(C)C(OC2CC(C)(OC)C(O)C(C)O2)C(C)C(OC2OC(C)CC(N(C)C)C2O)C(C)(O)CC(C)C(=NOC)C(C)C(O)C1(C)O` (centres unmarked) [EMO, 9-0-methyloximinyl erythromycin A], for which, in experiment [1] (15 mg/kgm/day in DMSO, subcutaneous, 14 days, individual ducks (Animal No. 1-4), determined on day 22), the “% Reduction in DHBV DNA In Serum After 14 Days Treatment” value was 100% (2×) and 96% and 94%. The “picograms of DHPV DNA/ml serum” value in experiment [1] (by day 12 (EMO 15 mg/kg/day from day 8 for 14 days; 900 at day 0, maximum 1500 by day 8), low level retained until day 22) is reported as “below the level of detection”. For the same compound, the “picograms of DHPV DNA/ml serum” value in experiment [1] (day 32, 10 days after EMO treatment was discontinued (day 22)) is given as “about 650 picograms DHPV DNA/ml serum”. For the same compound, in experiment [2] (setting [3]), the inhibition at 1 µg/mL worked out at 10%, the inhibition at 5 µg/mL worked out at 50%, the inhibition at 10 µg/mL amounted to 73% and the inhibition at 20 µg/mL came to 82%. In experiment [2] (setting [4]), the inhibition at 1 µg/mL was found to be 8%, the inhibition at 5 µg/mL turned out to be 45%, the inhibition at 10 µg/mL was determined as 69% and the inhibition at 20 µg/mL came to 86%.
